# Assay results from patent US8685999B2, “Beta carboline sulphonylurea derivatives as EP4 receptor antagonists” (Merck Sharp & Dohme Corp., priority 2008, dated 2014).
# Target: T1, EP4 (Homo sapiens, UniProt P35408)
# T1 construct: expressed in transfected cells; membranes prepared by differential centrifugation
# Test: Prostanoid receptor binding assay (radioligand displacement binding assay)
# Details: column marked X when IC50 < 1; read-out: IC50 (nm) X < 1
# T1 sequence (P35408 whole entry): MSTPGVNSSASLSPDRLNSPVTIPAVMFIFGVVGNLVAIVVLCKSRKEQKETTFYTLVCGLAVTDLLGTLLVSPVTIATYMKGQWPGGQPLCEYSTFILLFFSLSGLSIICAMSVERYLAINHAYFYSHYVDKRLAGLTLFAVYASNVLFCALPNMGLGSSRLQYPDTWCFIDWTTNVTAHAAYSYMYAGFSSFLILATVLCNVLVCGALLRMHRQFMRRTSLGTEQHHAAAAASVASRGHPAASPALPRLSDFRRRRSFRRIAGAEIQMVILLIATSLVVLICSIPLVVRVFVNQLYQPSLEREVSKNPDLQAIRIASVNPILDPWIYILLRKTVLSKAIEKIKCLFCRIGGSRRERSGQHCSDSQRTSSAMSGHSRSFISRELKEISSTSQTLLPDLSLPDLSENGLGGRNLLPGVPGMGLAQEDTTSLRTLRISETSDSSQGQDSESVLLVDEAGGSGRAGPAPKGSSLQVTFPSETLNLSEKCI
row,IC50 [nM],Compound
1,< 1,"CN1CCc2c(n(-c3ccc(CCNC(=O)NS(=O)(=O)c4ccc(Cl)cc4)cc3)c3cc(Br)ccc23)C1=O [Example 1-15, N-[({2-[4-(7-bromo-2-methyl-1-oxo-1,2,3,4-tetrahydro-9H-beta-carbolin-9-yl)phenyl]ethyl}amino)carbonyl]-4-chlorobenzenesulfonamide]"
2,< 1,"CN1CCc2c(n(-c3ccc(CC4(NC(=O)NS(=O)(=O)c5ccc(Cl)cc5)CC4)cc3)c3ccc(-c4ccccn4)cc23)C1=O [Example 1-26, 4-chloro-N-[({1-[4-(2-methyl-1-oxo-6-pyridin-2-yl-1,2,3,4-tetrahydro-9H-beta-carbolin-9-yl)benzyl]cyclopropyl}amino)carbonyl]benzenesulfonamide]"
3,< 1,"CN1CCc2c(n(-c3ccc(CCNC(=O)NS(=O)(=O)c4ccc(Cl)cc4)cc3)c3ccc(-c4cccnc4)cc23)C1=O [Example 1-21, 4-chloro-N-[({2-[4-(2-methyl-1-oxo-6-pyridin-3-yl-1,2,3,4-tetrahydro-9H-beta-carbolin-9-yl)phenyl]ethyl}amino)carbonyl]benzenesulfonamide]"
